We go through two compounds from patent US4082735A, “Novel immunological adjuvant compounds and methods of preparation thereof” (Syntex (U.S.A.) Inc., priority 1976, dated 1978).

The subject of data set [1] is guinea pigs. As to the kind of experiment: Delayed hypersensitivity to arsanilic tyrosine, skin test after immunisation with antigen mixture plus test compound in FIA. It counts as in vivo. Conditions: relative to FIA = 1; dose 50 μg per guinea pig, subcutaneous in FIA emulsion; skin test day 14, read at 24 hours. The method, then:
(§1) The antigen mixture used consists of 20 μg. of arsanilic tyrosine and 100 μg. of protein [either bovine serum albumin (BSA) or ovalbumin]. The antigen mixture and the compounds to be tested, at the dose levels per guinea pig shown in the Table below, are dissolved in saline and emulsified with an equal volume of Freund's Incomplete Adjuvant (FIA). Groups of ten guinea pigs are used for each test compound and each guinea pig is injected with 0.1 ml. of the above emulsion, subcutaneously, in the nuchal region. Control groups are given the antigen mixture alone emulsified with FIA.
After 14 days, all animals are skin tested using 25 μg arsanilic tyrosine conjugated to either BSA or ovalbumin (BSA is used in this test when ovalbumin is present in the antigen mixture and vice versa) which is given in 0.1 ml saline intradermally in the flanks of the animals. […] Thus, the procedure is as follows: skin tests with a high degree of infiltration are scored as ++ and assigned the number 3; those with a lesser degree are scored as + and given the number 2, whereas skin reactions with no infiltration are scored as zero and assigned the number 1. […]

In data set [2] the test system is guinea pigs. As to the kind of experiment: Antibody titre (antibovine serum albumin or antiovalbumin antibodies) by passive hemagglutination or Farr radioimmune assay. Conditions: relative to FIA = 1; dose 50 μg per guinea pig, subcutaneous in FIA emulsion; sera day 42. It counts as in vivo. Here is the method:
as §1
On day 42 all animals are bled by cardiac puncture and the sera assayed for antibovine serum albumin or antiovalbumin antibodies by the passive hemagglutination technique or by radiommune assay using the Farr techbique (P. Minden and R.S. Farr in "Handbook of Experimental Immunology", edited by D.M. Weir, Chapter 15, Volume 1, Blackwell Scientific Publications, Oxford) using 125 iodine labeled bovine serum albumin. Average potencies of these assays are presented in Column 2 of the Table below relative to FIA having the value of one.

The next data set relates to dogs. As to the kind of experiment: Side effects in dogs after inoculation. It counts as in vivo, dog. The note with it: 4 dogs. The source says:
A. 48 Dogs were divided into groups and inoculated with the amounts of compound (per kilogram of body weight) as shown in the following Table: […]

For a further data set, the system named is cats. Put plainly: Side effects in cats after inoculation. It counts as in vivo, cat. Conditions: 1500 μg per kilogram. The source says: B. Seven cats were divided into groups and inoculated with the amounts of compounds (per kilogram of body weight) as shown in the following Table: […]

With “2-acetamido-2-deoxy-D-glucos-3-O-yl-acetyl-L-prolyl-D-isoglutamine”, the “Average Potency, Delayed Hypersensitivity to Arsanilic Tyrosine” value in the data set on guinea pigs [1] amounted to 5.4. The “Average Potency, Antibody Titre” value in the data set with guinea pigs [2] came out at 8.0.

For the compound `CC(=O)N[C@H]1C(O)O[C@H](CO)[C@@H](O)[C@@H]1OC(C)C(=O)N[C@H](C)C(=O)N[C@H](CCC(=O)O)C(N)=O` (stereo partly drawn) [2-(2-acetamido-2-deoxy-D-glucos-3-0-yl)-D-propionyl-L-alanyl-D-isoglutamine], the “dogs showing severe depression, excessive salivation and vomiting” value with dogs (240 μg per kilogram of body weight) was “two of the dogs”; with dogs (600 μg per kilogram of body weight), “All of the dogs”; in the data set on dogs (1500 μg per kilogram of body weight), “All of the dogs”. For the same compound, in the data set with cats (3 cats), the “condition at 24 hours post-inoculation” value is “all animals had returned to normal”. Moreover, in the data set with cats (3 cats), the food intake result is “Food was refused”. Also, in the data set with cats (3 cats), the “general condition following inoculation” value is “became depressed and unkempt”. The diarrhea result in the data set with cats (3 cats, 2-5 hours post-inoculation) is listed as “All animals had diarrhea”. In addition, in the data set with cats (3 cats, over a period of 2-5 hours post-inoculation), the “vomiting, number of times” value is reported as 4-6 times. Besides, in the data set on cats (seven hours post-inoculation), the “rectal temperature, peak” value turned out to be 104 ° F. The “Average Potency, Delayed Hypersensitivity to Arsanilic Tyrosine” value in the data set on guinea pigs [1] is 3.3. For the same compound, the “Average Potency, Antibody Titre” value with guinea pigs [2] is 3.7.
